Assay results taken from paper PMC7048748, “Anxiolytic Drug FGIN-1-27 Ameliorates Autoimmunity by Metabolic Reprogramming of Pathogenic Th17 Cells” (Scientific Reports, 2020).

Key:
eIF2α = assay: Western blot for phosphorylated eIF2α; type: cell-based, mouse; conditions: 24 hours, compared to DMSO controls
Protocol: (a) MA-plot showing shrunken log2 fold-changes of detected genes between the DMSO and FGIN-1-27 RNA-seq samples, ranked by average normalized count. Red dots indicate differentially expressed genes at adjusted p-value <0.05. (b) Transcript levels for the indicated genes after 24 hours of treatment with DMSO or FGIN-1-27 quantified by qPCR. The error bars represent SD. (c) Western blot analysis for phosphorylated eIF2α and ATF4 24 hours after treatment with DMSO or FGIN-1-27 (5 and 10 µM). Data are representative of 3 independent experiments. (d) Amino acids in Th17 cells measured 72 hours after treatment with FGIN-1-27. The error bars represent SD. (e) ROS was measured using cell permeant reagent 2′,7′ –dichlorofluorescin diacetate (DCFDA) at 24 hours following treatment with FGIN-1-27. Filled grey histogram-DMSO, dotted line-FGIN-1-27 (10 µM) and dashed line indicates FGIN-1-27 (5 µM). […] Data are normalized using DMSO treated cells as 100% and the error bars represent SD.
Cell lysates were prepared by lysis in RIPA buffer containing protease and phosphatase inhibitors and immunoblotting was performed by standard methods.
(a) W estern blot analysis for phosphorylated eIF2α and ATF4 24 hours after treatment
with DMSO or FGIN-1-27 (5 and 10 µM). […]
(a) Indicated sterols were measured in Th17 cells treated with DMSO or FGIN-1-27 for […]

[1] = design: method as in PMID 21119734, PMID 1326631, PMID 29698632; conditions: cited from earlier work
[2] = system: S6 ribosomal protein (Ser 235/236) and mTOR (Ser 2448); assay: Phospho S6 and phospho mTOR staining; type: cell-based, mouse; conditions: 10, 5 and 2.5 µM
Protocol: For phospho-S6 analyses, cells were cultured for 3 hours in Th17 polarization media on anti-CD3/CD28 coated plates. Cells were then fixed after fixation and permeabilization with a Transcription Factor Staining kit (eBioscience) and stained with anti-phospho-S6 antibody (S235/236, Cell Signaling) and anti-CD4. Dead cells were excluded using Live/Dead stain prior to fixation. For mTOR analyses, anti-phospho-mTOR antibody was used (Ser2448, eBioscience). page 6: […] blot analysis for phosphorylated eIF2α and ATF4 24 hours after treatment with DMSO or FGIN-1-27 (5 and 10 μM). (b) Intracellular phospho S6 ([…]/236) Th17 cells treated with DMSO or FGIN-1-27 […] The black line represents DMSO and the grey filled histogram represent FGIN-1-27 (10μM). The dotted lines (5μ M) and the dashed line represents staining after 2.5μM of FGIN-1-27 treatment. (c) Intracellular phospho mTOR ([…]) Th17 cells treated with DMSO or FGIN-1-27 […] The black line represents DMSO and the grey filled histogram represent FGIN-1-27 (10μM). The dotted lines (5μ M) and the dashed line represents staining after 2.5μM of FGIN-1-27 treatment.

polarized Th17 cells = assay: IL-17 production in fully differentiated Th17 cells after re-stimulation; type: cell-based, mouse; conditions: on re-stimulation
Protocol: We also tested whether FGIN-1-27 regulated IL-17 production in fully differentiated Th17 cells. […] Thus, FGIN-1-27 inhibits Th17 cell differentiation in vitro without compromising T cell activation or survival.
(h) Dose response plot showing effect of FGIN-1-27 on intracellular IL-17 and viability in pre- differentiated Th17 cells after re- stimulation. Data is normalized against […]
(i) Mean clinical scores of mice following active induction of EAE. Mice were injected i/p twice daily with vehicle or FGIN-1-27 for 7 days. Data are pooled from 5 mice/group. The error bars represent SEM.
(j) Binding of FGIN-1-27 to TSPO in a radioligand displacement assay. Inhibition of binding of control (radiolabeled PK-11195) was used to determine binding of FGIN- […]
(1 picture or pasted object on this page, not shown here)

[3] = system: experimental autoimmune encephalomyelitis (EAE); assay: Active EAE induced with MOG peptide 35-55; type: in vivo, mouse; conditions: 30 mg/kg intraperitoneal twice daily for 7 days

## CCCCCCN(CCCCCC)C(=O)Cc1c(-c2ccc(F)cc2)[nH]c2ccccc12 [FGIN-1-27, N, N-di-n-hexyl 2-(4-fluorophenyl) indole-3-acetamide]
eIF2α
  increase in eIF2α phosphorylation: 4.5 fold
[1]
  crossing of the blood brain barrier: can cross the blood brain barrier
[2]
  phosphorylation of S6 ribosomal protein (Ser 235/236) and mTOR (Ser 2448): dose-dependent decrease
Polarized Th17 cells
  IL-17 producing cells in fully differentiated Th17 cells: fewer IL-17 producing cells were detected
[3]
  onset or severity of the symptoms: did not affect onset or severity
